Source: US6864068B2, “Antifungal proteins” (Syngenta Limited, priority 1995, dated 2005)

Tested on: Fusarium culmorum
Assay: Liquid growth inhibition assay in half strength potato dextrose broth
Format: cell-based
Settings: assayed as described in Example 2
Description: Yeast cells transformed with either pTG3828, pMFprepro/Rs AFP2 or PMFpre/RsAFP2 were grown in selective SD medium until a saturated culture was obtained. To assess the antifungal activity of proteins secreted by the yeast cells, the supernatant of the yeast cultures was filtered (sterile 0.22 μm filter) and serially diluted in sterile water. Diluted samples (20 μl) were incubated in microtiter plate wells with 80 μl of half strength potato dextrose broth (Difco) containing spores 10^4 spores/ml) of Fusarium culmorum.
Growth of the fungi was monitored by microspectrophotometry as described by Broekaert et al (1990, FEMS Microbiol Lett, 69:55-60). Homogenates of yeast cells were prepared by spinning down 1 ml of a saturated yeast culture, suspending the cells in 200 μl of water, vortexing the cells in the presence of 0.2 g of glass beads (425-600 μm), and clearing the homogenate by centrifugation (1 min, 10000×g). Antifungal activity could only be detected in the culture medium of yeast cells transformed with pMFprepro/RsAFP2, which contained about 2 μg/ml of Rs-AFP2 equivalents. The activity of the homogenate of these cells, as well as that of culture media and cell homogenates of yeast cells transformed with pMFpre/RsAFP2 or pTG3828 transformed yeasts was below the detection limit (about 0.2 μg/ml of Rs-AFP2 equivalents).
The supernatant of 100 ml of a saturated culture of yeast transformed with pMFprepro/RsAFP2 (grown on minimal selective SD medium supplemented with 0.5% w/v of casamino acids) was centrifuged (4000 rpm, 10 min), and filtered (0.45 μm) to remove yeast cells and debris. Tris-HC1 (pH9) was added to the supernatant to a final concentration of 50 mM. The sample was loaded at a flow rate of 2 ml/min on an anion exchange chromatography column (Q-Sepharose Fast Flow, 20 ml bed volume, Pharmacia), on-line connected with a disposable reversed-phase C8 silica column (Bond Elut, 500 mg solid phase, Varian, Harbor City, USA). The antifungal activity was not retained on the Q-Sepharose matrix but bound to the C8 silica matrix. […] The latter eluate was dried in a rotating vacuum concentrator, redissolved in 0.5 ml 15% (v/v) acetonitrile containing 0.1% (v/v) TFA, and was loaded on a reversed-phase C2/C18 silica column (Pep-S, 5 μm beads, 0.4×25 cm, Pharmacia connected to a Waters 600 HPLC station pre-equilibriated with 15% acetonitrile containing 0.1% (v/v) TFA. After loading, the column was rinsed with the same buffer until the absorbance reached background level. The column was subsequently eluted with a 15 minute linear gradient from 15% to 50% acetonitrile containing 0.1% TFA at a flow rate of 1 ml/min. The eluate was monitored for proteins by on-line measurement of the absorbance at 280 nm. […] Twenty μl fractions were tested in a liquid growth inhibition assay: 20 μl samples were incubated in microtiter plate wells with 80 μl of half strength potato dextrose broth (Difco) containing 10^4 spores/ml of F culmorum; growth of the fungi was monitored by microspectrophotometry as described by Broekaert et al (1990, FEMS Microbiol Lett, 69: 55-60).
The specific antifungal activity of RPC-purified peak A material, as well as that of plant-derivable Rs-AFP2, was determined by measuring the percentage growth inhibition of F culmorum caused by serial dilutions of the protein samples. […]

SIα2: Sorghum bicolor α-amylase inhibitor 2, partially homologous to Rs-AFP2
antifungal activity: does not exhibit antifungal activity
